Each block holds one compound with its values, some of them ahead of it.
How the values were obtained:
[1] = target: T1, Dual specificity protein kinase CLK1 (Homo sapiens, UniProt P49759); assay: Inhibition of human recombinant GST-tagged Clk1 (129 to 484 residues) expressed in Escherichia coli expression system at 100 nM using GRSRSRSRSRSRSRS peptide as substrate incubated for 15 mins in presence of ATP by phosphoimager analysis relative to control
Target sequence in this assay (P49759 whole entry, looked up, the tested form may be a part): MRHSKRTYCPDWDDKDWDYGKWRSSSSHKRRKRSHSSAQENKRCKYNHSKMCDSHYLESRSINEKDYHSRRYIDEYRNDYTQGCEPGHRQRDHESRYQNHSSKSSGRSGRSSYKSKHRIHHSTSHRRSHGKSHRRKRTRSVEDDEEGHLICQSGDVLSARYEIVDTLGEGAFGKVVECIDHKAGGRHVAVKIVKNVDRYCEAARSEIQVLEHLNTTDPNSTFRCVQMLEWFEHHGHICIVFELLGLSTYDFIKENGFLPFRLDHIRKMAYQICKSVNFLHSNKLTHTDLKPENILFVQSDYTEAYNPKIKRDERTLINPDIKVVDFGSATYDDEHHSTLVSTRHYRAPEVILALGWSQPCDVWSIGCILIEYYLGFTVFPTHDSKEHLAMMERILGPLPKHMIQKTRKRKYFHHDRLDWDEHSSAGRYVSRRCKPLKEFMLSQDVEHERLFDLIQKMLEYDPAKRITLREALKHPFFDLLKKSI

T-24 = assay: Antiproliferative activity against human T24 cells assessed as cell growth inhibition measured after 3 days by MTT assay; assay type: functional; conditions: T-24, 72 h, time 3 day
[2] = target: T1, Dual specificity protein kinase CLK1; assay: Inhibition of human recombinant GST-tagged Clk1 (129 to 484 residues) expressed in Escherichia coli expression system using GRSRSRSRSRSRSRS peptide as substrate incubated for 15 mins in presence of ATP by phosphoimager analysis
Target sequence in this assay (P49759 whole entry, the tested form may be a part): as the sequence (P49759 whole entry, looked up, the tested form may be a part) above

Homo sapiens [3] = species: Homo sapiens; assay: Selectivity ratio of IC50 for human DYRK1A to IC50 for human Clk1
Homo sapiens [4] = species: Homo sapiens; assay: Selectivity ratio of IC50 for human Clk2 to IC50 for human Clk1
Homo sapiens [5] = species: Homo sapiens; assay: Selectivity index, ratio of IC50 for human Clk2 to IC50 for human Clk1 by phosphoimager analysis
[6] = target: SRSF protein kinase 1 (Homo sapiens) (UniProt Q96SB4); assay: Inhibition of human recombinant His tagged full length SRPK1 expressed in Baculovirus expression system at 1 uM relative to control
[7] = target: T2, Dual specificity protein kinase CLK2 (Homo sapiens, UniProt P49760); assay: Inhibition of human recombinant GST-tagged Clk2 expressed in Baculovirus expression system at 0.25 uM using GRSRSRSRSRSRSRS peptide as substrate incubated for 15 mins in presence of ATP by phosphoimager analysis relative to control
Target sequence in this assay (P49760 whole entry, looked up): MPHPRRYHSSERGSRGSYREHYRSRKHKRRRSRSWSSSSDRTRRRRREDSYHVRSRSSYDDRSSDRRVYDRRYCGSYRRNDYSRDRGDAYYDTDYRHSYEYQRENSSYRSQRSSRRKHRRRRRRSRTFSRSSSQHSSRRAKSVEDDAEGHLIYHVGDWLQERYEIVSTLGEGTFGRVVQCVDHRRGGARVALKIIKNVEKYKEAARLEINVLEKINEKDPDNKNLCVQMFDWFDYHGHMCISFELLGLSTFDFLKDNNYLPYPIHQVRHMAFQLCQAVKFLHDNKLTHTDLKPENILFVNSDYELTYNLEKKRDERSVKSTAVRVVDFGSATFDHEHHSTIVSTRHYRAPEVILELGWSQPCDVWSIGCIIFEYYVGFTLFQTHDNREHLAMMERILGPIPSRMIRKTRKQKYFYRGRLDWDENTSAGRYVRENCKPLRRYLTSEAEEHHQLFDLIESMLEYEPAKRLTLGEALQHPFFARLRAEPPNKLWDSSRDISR

[8] = target: T2, Dual specificity protein kinase CLK2; assay: Inhibition of human recombinant GST-tagged Clk2 expressed in Baculovirus expression system using GRSRSRSRSRSRSRS peptide as substrate incubated for 15 mins in presence of ATP by phosphoimager analysis
Target sequence in this assay (P49760 whole entry): as the sequence (P49760 whole entry, looked up) above

[9] = target: T3, Dual specificity protein kinase CLK4 (Homo sapiens, UniProt Q9HAZ1); assay: Inhibition of human recombinant GST tagged full length CLK4 expressed in Baculovirus expression system at 1 uM relative to control
Target sequence in this assay (Q9HAZ1 whole entry, looked up): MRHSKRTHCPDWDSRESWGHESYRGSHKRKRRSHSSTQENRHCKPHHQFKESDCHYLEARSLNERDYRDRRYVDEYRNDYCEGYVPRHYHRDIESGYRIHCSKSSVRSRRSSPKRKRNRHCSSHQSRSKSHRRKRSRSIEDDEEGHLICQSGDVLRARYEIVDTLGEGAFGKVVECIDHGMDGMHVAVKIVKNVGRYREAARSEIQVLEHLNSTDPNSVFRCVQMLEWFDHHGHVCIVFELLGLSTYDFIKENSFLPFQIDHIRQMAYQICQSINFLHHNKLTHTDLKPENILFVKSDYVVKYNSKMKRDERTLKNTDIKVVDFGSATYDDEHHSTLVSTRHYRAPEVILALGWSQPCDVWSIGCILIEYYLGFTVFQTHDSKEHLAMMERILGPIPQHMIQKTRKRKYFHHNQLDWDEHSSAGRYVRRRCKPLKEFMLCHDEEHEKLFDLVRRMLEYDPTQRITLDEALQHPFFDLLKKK

[10] = target: Dual specificity tyrosine-phosphorylation-regulated kinase 1A (Homo sapiens) (UniProt Q13627); assay: Inhibition of human recombinant GST tagged full length DYRK1A expressed in Baculovirus expression system at 1 uM relative to control
Homo sapiens [11] = species: Homo sapiens; assay: Inhibition of CK2 (unknown origin) at 1 uM relative to control
[12] = target: Dual specificity protein kinase CLK3 (Homo sapiens) (UniProt P49761); assay: Inhibition of human recombinant GST-tagged full length CLK3 expressed in Baculovirus expression system at 1 uM relative to control
[13] = target: T4, Serine/threonine-protein kinase haspin (Homo sapiens) (UniProt Q8TF76); assay: Inhibition of human recombinant GST tagged full length Haspin catalytic domain expressed in Baculovirus expression system at 1 uM relative to control
T4 sequence (whole entry): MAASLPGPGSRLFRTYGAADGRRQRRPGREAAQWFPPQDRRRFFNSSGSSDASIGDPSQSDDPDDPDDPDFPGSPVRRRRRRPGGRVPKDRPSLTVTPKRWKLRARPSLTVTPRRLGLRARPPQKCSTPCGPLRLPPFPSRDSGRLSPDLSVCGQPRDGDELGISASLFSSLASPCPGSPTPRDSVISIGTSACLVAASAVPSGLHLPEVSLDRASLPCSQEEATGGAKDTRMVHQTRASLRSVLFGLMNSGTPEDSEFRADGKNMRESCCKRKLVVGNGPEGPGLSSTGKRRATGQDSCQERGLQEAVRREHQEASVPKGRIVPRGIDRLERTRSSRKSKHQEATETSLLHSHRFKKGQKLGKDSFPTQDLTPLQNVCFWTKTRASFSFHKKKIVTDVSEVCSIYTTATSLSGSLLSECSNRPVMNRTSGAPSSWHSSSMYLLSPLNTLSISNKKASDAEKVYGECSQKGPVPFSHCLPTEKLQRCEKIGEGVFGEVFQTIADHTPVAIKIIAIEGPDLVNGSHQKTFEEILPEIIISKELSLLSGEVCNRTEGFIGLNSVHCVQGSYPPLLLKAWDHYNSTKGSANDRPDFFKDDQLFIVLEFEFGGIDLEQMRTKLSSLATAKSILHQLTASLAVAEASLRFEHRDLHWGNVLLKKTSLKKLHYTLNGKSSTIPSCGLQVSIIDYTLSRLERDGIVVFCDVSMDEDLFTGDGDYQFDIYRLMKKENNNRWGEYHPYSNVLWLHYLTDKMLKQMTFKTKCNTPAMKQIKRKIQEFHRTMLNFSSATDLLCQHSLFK

[14] = target: Homeodomain-interacting protein kinase 1 (Homo sapiens) (UniProt Q86Z02); assay: Inhibition of human recombinant GST tagged HIPK1 expressed in Baculovirus expression system at 1 uM relative to control
Chain of Homeodomain-interacting protein kinase 1 (Homo sapiens) (Q86Z02 whole entry, looked up): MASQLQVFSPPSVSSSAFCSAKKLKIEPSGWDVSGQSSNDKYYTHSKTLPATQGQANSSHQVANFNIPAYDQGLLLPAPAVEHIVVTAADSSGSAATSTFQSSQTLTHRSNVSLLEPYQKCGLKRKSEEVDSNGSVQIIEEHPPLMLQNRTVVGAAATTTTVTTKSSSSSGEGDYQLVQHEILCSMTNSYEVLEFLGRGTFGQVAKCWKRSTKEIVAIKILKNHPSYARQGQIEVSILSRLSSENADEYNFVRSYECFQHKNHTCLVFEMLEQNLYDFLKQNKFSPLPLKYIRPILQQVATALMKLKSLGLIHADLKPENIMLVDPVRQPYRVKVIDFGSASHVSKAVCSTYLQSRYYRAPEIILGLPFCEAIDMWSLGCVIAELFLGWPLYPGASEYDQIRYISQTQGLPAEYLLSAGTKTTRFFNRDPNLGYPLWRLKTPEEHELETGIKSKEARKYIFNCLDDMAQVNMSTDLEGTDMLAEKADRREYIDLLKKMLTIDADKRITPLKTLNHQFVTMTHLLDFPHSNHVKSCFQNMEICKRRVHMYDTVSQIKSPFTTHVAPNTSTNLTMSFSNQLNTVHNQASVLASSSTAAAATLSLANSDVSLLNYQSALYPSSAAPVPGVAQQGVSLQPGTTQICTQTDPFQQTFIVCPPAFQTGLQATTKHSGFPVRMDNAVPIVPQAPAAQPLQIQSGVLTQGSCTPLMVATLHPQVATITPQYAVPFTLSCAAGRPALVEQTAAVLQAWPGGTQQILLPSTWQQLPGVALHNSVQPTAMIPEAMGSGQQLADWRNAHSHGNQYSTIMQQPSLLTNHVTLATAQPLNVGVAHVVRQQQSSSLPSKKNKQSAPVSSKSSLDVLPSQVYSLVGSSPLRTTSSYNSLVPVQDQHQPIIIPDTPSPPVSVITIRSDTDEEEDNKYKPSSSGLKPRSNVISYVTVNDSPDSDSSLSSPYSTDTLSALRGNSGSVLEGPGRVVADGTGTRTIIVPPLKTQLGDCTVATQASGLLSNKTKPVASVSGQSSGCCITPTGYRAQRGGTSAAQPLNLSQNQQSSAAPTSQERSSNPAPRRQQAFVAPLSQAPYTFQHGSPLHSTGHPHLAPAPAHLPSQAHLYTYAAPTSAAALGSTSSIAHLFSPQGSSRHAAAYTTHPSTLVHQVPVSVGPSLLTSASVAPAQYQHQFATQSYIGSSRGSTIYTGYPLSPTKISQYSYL

[15] = target: BDNF/NT-3 growth factors receptor (Homo sapiens) (UniProt Q16620); assay: Inhibition of human recombinant His tagged full length TRKB expressed in Baculovirus expression system at 1 uM relative to control
Chain of BDNF/NT-3 growth factors receptor (Homo sapiens) (Q16620 32-822 limits assumed): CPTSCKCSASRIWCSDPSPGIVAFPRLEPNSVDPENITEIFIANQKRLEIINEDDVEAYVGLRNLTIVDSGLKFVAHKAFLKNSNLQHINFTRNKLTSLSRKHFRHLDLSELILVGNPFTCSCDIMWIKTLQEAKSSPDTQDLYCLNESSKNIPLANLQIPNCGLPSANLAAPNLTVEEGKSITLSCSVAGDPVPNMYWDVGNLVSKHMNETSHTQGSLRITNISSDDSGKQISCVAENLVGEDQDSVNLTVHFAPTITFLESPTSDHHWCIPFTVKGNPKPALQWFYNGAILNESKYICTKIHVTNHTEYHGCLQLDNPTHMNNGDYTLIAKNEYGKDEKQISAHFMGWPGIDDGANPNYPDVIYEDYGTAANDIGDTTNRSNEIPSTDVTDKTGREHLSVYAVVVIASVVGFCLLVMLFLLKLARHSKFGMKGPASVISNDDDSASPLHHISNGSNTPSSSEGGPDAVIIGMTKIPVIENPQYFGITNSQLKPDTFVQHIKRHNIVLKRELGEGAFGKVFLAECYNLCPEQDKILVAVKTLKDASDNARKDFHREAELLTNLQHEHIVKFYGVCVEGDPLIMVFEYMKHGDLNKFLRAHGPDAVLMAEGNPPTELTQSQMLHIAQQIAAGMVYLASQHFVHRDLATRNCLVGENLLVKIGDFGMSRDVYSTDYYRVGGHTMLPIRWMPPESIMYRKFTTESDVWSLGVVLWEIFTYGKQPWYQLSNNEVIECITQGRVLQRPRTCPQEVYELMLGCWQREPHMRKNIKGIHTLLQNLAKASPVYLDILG

[16] = target: Serine/threonine-protein kinase pim-1 (Homo sapiens) (UniProt P11309); assay: Inhibition of human recombinant His tagged full length Pim1 expressed in Baculovirus expression system at 1 uM relative to control
Chain of Serine/threonine-protein kinase pim-1 (Homo sapiens) (P11309 whole entry, looked up, canonical isoform): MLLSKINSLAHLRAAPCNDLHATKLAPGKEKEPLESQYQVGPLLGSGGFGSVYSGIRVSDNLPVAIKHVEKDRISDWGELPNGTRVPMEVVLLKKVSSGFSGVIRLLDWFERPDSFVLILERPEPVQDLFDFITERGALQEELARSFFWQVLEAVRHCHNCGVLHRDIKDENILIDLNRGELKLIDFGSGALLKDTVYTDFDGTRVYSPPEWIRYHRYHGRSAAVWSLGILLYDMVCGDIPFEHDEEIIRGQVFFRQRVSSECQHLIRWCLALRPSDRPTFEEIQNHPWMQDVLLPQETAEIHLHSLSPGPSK

[17] = target: Casein kinase I isoform delta (Homo sapiens) (UniProt P48730); assay: Inhibition of human recombinant GST tagged full length CSNK1D expressed in Baculovirus expression system at 1 uM relative to control
[18] = target: Cyclin-dependent kinase 5/CDK5 activator 1 (Homo sapiens) (UniProt Q00535+Q15078); assay: Inhibition of human recombinant GST tagged/His-tagged full length CDK5/p25 expressed in Baculovirus expression system at 1 uM relative to control
[19] = target: T3, Dual specificity protein kinase CLK4; assay: Inhibition of human recombinant GST tagged full length CLK4 expressed in Baculovirus expression system at 1 uM
[20] = target: T5, Dual specificity tyrosine-phosphorylation-regulated kinase 2 (Homo sapiens) (UniProt Q92630); assay: Inhibition of human recombinant GST tagged full length DYRK2 expressed in Escherichia coli expression system at 1 uM relative to control
T5 sequence (whole entry): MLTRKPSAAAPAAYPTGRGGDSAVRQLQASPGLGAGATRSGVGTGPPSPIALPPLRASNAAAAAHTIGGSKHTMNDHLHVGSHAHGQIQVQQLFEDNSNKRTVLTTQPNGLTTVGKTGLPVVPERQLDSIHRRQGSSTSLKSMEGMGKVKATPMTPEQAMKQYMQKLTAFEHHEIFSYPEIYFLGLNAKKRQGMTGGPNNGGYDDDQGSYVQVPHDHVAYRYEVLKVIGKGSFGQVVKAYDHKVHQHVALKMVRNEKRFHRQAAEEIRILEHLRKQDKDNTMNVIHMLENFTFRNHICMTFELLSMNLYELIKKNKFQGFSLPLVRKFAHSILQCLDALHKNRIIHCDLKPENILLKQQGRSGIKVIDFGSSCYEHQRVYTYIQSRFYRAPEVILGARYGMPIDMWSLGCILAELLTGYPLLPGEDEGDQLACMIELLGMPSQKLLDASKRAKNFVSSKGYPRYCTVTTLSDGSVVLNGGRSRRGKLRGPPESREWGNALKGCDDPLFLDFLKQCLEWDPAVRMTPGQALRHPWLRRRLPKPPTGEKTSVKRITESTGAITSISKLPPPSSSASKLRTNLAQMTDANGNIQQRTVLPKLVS

Homo sapiens [21] = species: Homo sapiens; assay: Selectivity ratio of IC50 for human Clk2 to IC50 for human Clk1 by ADP-Glo assay

SMILES: CCOc1ccccc1C(=O)NC(=O)c1cc2cc(OC)ccc2s1
GI50 (T-24): < 100 nM | IC50 [2]: 79.4 nM | inhibition [1]: 63.3%

SMILES: COc1ccc2sc(C(=O)N(C)Cc3cc(F)cc(F)c3)cc2c1
Ratio IC50 (Homo sapiens [3]): 28 | Ratio IC50 (Homo sapiens [4]): 9.8

SMILES: COc1ccc2sc(C(=O)NC(=O)c3ccc(F)cc3)cc2c1
inhibition [1]: 35.7%

SMILES: COc1cccc(C(=O)NC(=O)c2cc3cc(OC)ccc3s2)c1
inhibition [1]: 36.5%

SMILES: COc1ccc2sc(C(=O)NC(=O)c3ccccc3C)cc2c1
inhibition [1]: 6.5%

SMILES: COc1ccc2sc(C(=O)NC(=O)c3cccc(Cl)n3)cc2c1
inhibition [1]: 33%

SMILES: CCCOc1ccccc1C(=O)NC(=O)c1cc2cc(OC)ccc2s1
IC50 [2]: 89.8 nM | inhibition [1]: 62.3%

SMILES: COc1ccc2sc(C(=O)NC(=O)c3cccc(F)n3)cc2c1
Ratio IC50 (Homo sapiens [5]): 12 | inhibition [7]: 53.8% | GI50 (T-24): > 15000 nM | IC50 [8]: 250 nM | IC50 [2]: 20.9 nM | inhibition [1]: 67.1%

SMILES: COc1ccc(F)c(C(=O)NC(=O)c2cc3cc(OC)ccc3s2)c1
inhibition [1]: 7.8%

SMILES: COc1cc(F)c(C(=O)NC(=O)c2cc3cc(OC)ccc3s2)c(F)c1
inhibition [1]: 10.6%

SMILES: COc1ccc2sc(C(=O)NC(=O)c3cc(C)cc(F)c3)cc2c1
inhibition [1]: 51.8%

SMILES: COc1ccc2sc(C(=O)NC(=O)c3cccc4c3OCCO4)cc2c1
inhibition [1]: 9.2%

SMILES: COc1ccc2sc(C(=O)NC(=O)c3ccc(Br)cc3OC)cc2c1
Ratio IC50 (Homo sapiens [5]): > 3.3 | inhibition [7]: 3.4% | IC50 [8]: > 250 nM | IC50 [2]: 75 nM | inhibition [1]: 61%

SMILES: COc1ccc2sc(C(=O)NC(=O)c3cccc(F)c3)cc2c1
inhibition [1]: 38.5%

SMILES: COc1ccc2sc(C(=O)NC(=O)c3ccno3)cc2c1
inhibition [1]: 12.1%

SMILES: COc1ccc2sc(C(=O)NC(=O)c3ccc(OC)c(F)c3)cc2c1
inhibition [1]: 5.9%

SMILES: COc1ccc2sc(C(=O)NC(=O)c3ccccc3F)cc2c1
inhibition [1]: 16.5%

SMILES: COc1ccc2sc(C(=O)NC(=O)c3cc(C(F)(F)F)ccc3OC)cc2c1
inhibition [1]: 9.6%

SMILES: COc1ccc2sc(C(=O)NC(=O)c3cccc(OC)n3)cc2c1
inhibition [1]: 42.3%

SMILES: COc1ccc2sc(C(=O)NC(=O)c3ccccc3OC(F)(F)F)cc2c1
GI50 (T-24): 1100 nM | IC50 [2]: 49 nM | inhibition [1]: 64.4%

SMILES: COc1ccc2sc(C(=O)NC(=O)c3cc(F)cc(F)c3)cc2c1
inhibition [1]: 54.6%

SMILES: COc1ccc2sc(C(=O)NC(=O)c3cc(F)ccc3F)cc2c1
IC50 [2]: 70 nM | inhibition [1]: 65.6%

SMILES: COc1ccc2sc(C(=O)NC(=O)c3cc(C)on3)cc2c1
inhibition [1]: 7.3%

SMILES: COc1ccc2sc(C(=O)NC(=O)c3ccccc3Cl)cc2c1
IC50 [2]: 92 nM | inhibition [1]: 61.4%

SMILES: COc1ccc2sc(C(=O)NC(=O)c3ccccc3)cc2c1
inhibition [1]: 56.1%

SMILES: COc1ccc2sc(C(=O)NC(=O)c3cccc4c3OC(F)(F)O4)cc2c1
inhibition [1]: 43.1%

SMILES: CC(C)(C)c1ccc(C(=O)Nc2cn3cc(-c4cn[nH]c4)ccc3n2)cn1
Ratio IC50 (Homo sapiens [21]): 2.2

SMILES: COc1ccc2sc(C(=O)NC(=O)c3cc(Cl)cnc3OC)cc2c1
inhibition [1]: 44.9%

SMILES: COc1ccc2sc(C(=O)N(C)C(=O)c3ccccc3OC)cc2c1
inhibition [1]: 15.7%

Continued, in another order:

inhibition [1]: 12.4%
SMILES: COc1ccc2sc(C(=O)NC(=O)c3ccc(OC)c(OC)c3)cc2c1

Ratio IC50 (Homo sapiens [5]): > 62.5 | inhibition [6]: 4% | inhibition [7]: 47.1% | IC50 [8]: > 250 nM | inhibition [9]: 96% | inhibition [10]: 48% | inhibition (Homo sapiens [11]): 5% | inhibition [12]: 59% | IC50 [2]: 4 nM | inhibition [13]: 29% | inhibition [1]: 74.5% | inhibition [14]: 7% | inhibition [15]: 10% | inhibition [16]: 52% | inhibition [17]: 11%
SMILES: COc1ccc2sc(C(=O)NC(=O)c3ccc(F)cc3OC)cc2c1
GI50 (T-24): > 15000 nM

inhibition [1]: 42.7%
SMILES: COc1ccc2sc(C(=O)NC(=O)c3cc(C)ccc3OC)cc2c1

IC50 [2]: 34.6 nM | inhibition [1]: 86.6%
SMILES: COc1ccc2sc(C(=O)NC(=O)c3ccccc3OC)cc2c1

inhibition [1]: 30.8%
SMILES: COc1ccc(OC)c(C(=O)NC(=O)c2cc3cc(OC)ccc3s2)c1

inhibition [1]: 42.2%
SMILES: COc1ccc(C(=O)NC(=O)c2cc3cc(OC)ccc3s2)c(OC)c1
GI50 (T-24): > 15000 nM

inhibition [1]: 12.2%
SMILES: COc1ccc2sc(C(=O)NC(=O)c3c(OC)cccc3OC)cc2c1

inhibition [1]: 49.5%
SMILES: COc1ccc2sc(C(=O)NC(=O)c3ccc(Cl)cc3OC)cc2c1

Ratio IC50 (Homo sapiens [5]): 50 | inhibition [6]: 8% | inhibition [7]: 19.9% | IC50 [8]: 486 nM | inhibition [9]: 45% | inhibition [10]: 45% | inhibition (Homo sapiens [11]): 4% | inhibition [18]: 3% | inhibition [12]: 57% | IC50 [2]: 9.7 nM | inhibition [13]: 24% | inhibition [1]: 87.1% | inhibition [14]: 1% | IC50 [19]: 6.6 nM | inhibition [15]: 3% | inhibition [16]: 31% | inhibition [17]: 7% | inhibition [20]: 14%
SMILES: COc1ccc2sc(C(=O)NC(=O)c3cc(Cl)ccc3OC)cc2c1
GI50 (T-24): 1100 nM

Ratio IC50 (Homo sapiens [5]): 13.6 | inhibition [7]: 52.6% | IC50 [8]: 250 nM | IC50 [2]: 18.4 nM | inhibition [1]: 83.3%
SMILES: COc1ccc2sc(C(=O)NC(=O)c3cc(F)ccc3OC)cc2c1

inhibition [1]: 27.7%
SMILES: COc1ccc2sc(C(=O)NC(=O)c3cccc(OC)c3OC)cc2c1

inhibition [1]: 2.2%
SMILES: COc1ccc2sc(C(=O)NC(=O)c3cccc(Cl)c3OC)cc2c1

inhibition [1]: 50.9%
SMILES: COc1ccc2sc(C(=O)NC(=O)c3ccc(C)cc3OC)cc2c1

— ChEMBL document CHEMBL5113421, “Development of novel conformationally restricted selective Clk1/4 inhibitors through creating an intramolecular hydrogen bond involving an imide linker” (Eur J Med Chem, 2022)
